Data taken from PubChem BioAssay (NCI).
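Exposure lasted 48 hours, with cells grown in 96-well plates and compounds tested at five concentrations. The concentration for full growth arrest is given as TGI.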

Key:
Assay in all cases: DTP human tumour cell line panel, 48 h
UACC-62 melanoma = system: UACC-62 melanoma
SF-268 CNS = system: SF-268 CNS
SW-620 colon = system: SW-620 colon
PC-3 prostate = system: PC-3 prostate
CCRF-CEM leukemia = system: CCRF-CEM leukemia
MDA-MB-231 breast = system: MDA-MB-231 breast
RPMI-8226 leukemia = system: RPMI-8226 leukemia
HL-60(TB) leukemia = system: HL-60(TB) leukemia
SR leukemia = system: SR leukemia
NCI-H226 lung = system: NCI-H226 lung
SK-MEL-28 melanoma = system: SK-MEL-28 melanoma
786-0 renal = system: 786-0 renal
ACHN renal = system: ACHN renal
NCI-H460 lung = system: NCI-H460 lung
IGROV1 ovarian = system: IGROV1 ovarian
CAKI-1 renal = system: CAKI-1 renal
SF-295 CNS = system: SF-295 CNS
M14 melanoma = system: M14 melanoma
T-47D breast = system: T-47D breast
DMS 273 small cell lung = system: DMS 273 small cell lung

SMILES	TGI (UACC-62 melanoma) [µM]	TGI (SF-268 CNS) [µM]	TGI (SW-620 colon) [µM]	TGI (PC-3 prostate) [µM]	TGI (CCRF-CEM leukemia) [µM]	TGI (MDA-MB-231 breast) [µM]	TGI (RPMI-8226 leukemia) [µM]	TGI (HL-60(TB) leukemia) [µM]	TGI (SR leukemia) [µM]	TGI (NCI-H226 lung) [µM]	TGI (SK-MEL-28 melanoma) [µM]	TGI (786-0 renal) [µM]	TGI (ACHN renal) [µM]	TGI (NCI-H460 lung) [µM]	TGI (IGROV1 ovarian) [µM]	TGI (CAKI-1 renal) [µM]	TGI (SF-295 CNS) [µM]	TGI (M14 melanoma) [µM]	TGI (T-47D breast) [µM]	TGI (DMS 273 small cell lung) [µM]
CC(=O)c1c2c(cc3c1CC1(Cc4cc5c(cc4C1)C(=O)CCC5)C3)CCCC2 (stereo not given)	> 39.2	65	> 100	> 83.5	5.01	55.1	13.2	4.17	5.53	41.8	69.8	33.1	17.2	67.2	> 30.8	> 100	> 45.5	> 100	> 81.7	–
O=C1N/C(=N\N=C\c2ccccc2)C2(CCCCC2)O1	> 100	> 100	> 100	> 100	61.1	> 100	> 100	> 100	76.4	> 100	> 100	> 100	> 100	> 100	> 100	> 100	> 100	> 100	> 100	–
Cc1ccc(C2[C@H]3C(=O)N(c4ccc(Cc5ccc(N6C(=O)[C@@H]7ON(c8ccccc8)C(c8ccc(C)cc8)[C@@H]7C6=O)cc5)cc4)C(=O)[C@H]3ON2c2ccccc2)cc1 (stereo not given in full)	> 100	> 100	> 100	–	> 100	–	> 100	> 100	–	> 100	> 100	> 100	> 100	> 100	> 100	> 100	> 100	> 100	–	> 100
Cc1ccc2c(c1)C=CC1(O2)N(c2ccccc2)C(=S)OC1(C)C (stereo not given)	> 100	> 100	> 100	> 100	> 100	> 100	> 100	31.2	78.9	> 100	> 100	> 100	> 100	> 100	> 100	> 100	> 100	> 100	20.7	–
N#Cc1c(N)nc(SCc2ccccc2)c(C#N)c1-c1ccc(O)cc1	39.8	66.9	41.6	33.6	38.6	28.5	29.8	32.8	34.7	48.2	33	30.6	28.9	> 65.8	29.9	28.5	32.3	29.2	23.4	–
CC(NP(=O)(c1ccccc1)c1ccccc1)c1ccccc1 (stereo not given)	> 100	> 100	> 100	> 100	> 100	> 100	> 100	> 100	> 100	> 100	> 100	> 100	> 100	> 100	> 100	> 100	> 100	> 100	> 100	–
C=C1CCC2[C@](C)(CCC[C@]2(C)C(=O)O)[C@@H]1CCc1ccoc1 (stereo not given in full)	> 100	> 100	> 100	> 100	> 100	> 100	> 100	71.2	70.4	65.8	> 100	> 100	> 100	> 100	84.8	> 100	> 100	> 100	> 100	–
CC1CC(=NC2CCCCC2)Nc2ccccc2N1Cc1ccccc1 (stereo not given)	3.69	17.3	23	18.3	> 36.4	17	> 32.7	20.2	> 100	27.8	17.7	> 39	22.8	14.5	8.61	19.2	19.4	4.46	20.7	–
O=C1NC2C3CC(OCc4ccccc4)(OCc4ccccc4)C2OC3O1 (stereo not given)	> 50	> 50	> 50	–	> 50	–	> 50	> 50	–	> 50	> 50	> 50	–	–	> 50	> 50	> 50	> 50	–	> 50
O=CC(O)C(O)C1OC(=O)c2cc(O)c(O)c(O)c2C2=C(O)C(O)=C3OC(=O)c4c(c(O)c(O)c5c4C3C2C(=O)O5)-c2c(cc(O)c(O)c2O)C(=O)OCC1O (stereo not given)	> 100	> 100	36.3	> 100	> 100	58.1	> 100	67.7	63	> 100	> 100	32.2	> 100	> 100	> 100	37.7	> 100	> 100	> 100	–
O=C1C[C@@H]2[C@@H](c3ccccc3)[C@@H]3C(=O)c4ccccc4NC(=O)[C@H]3[C@]2(O)c2ccccc2N1	> 100	> 100	> 100	–	> 100	–	> 100	> 100	> 100	> 100	> 100	> 100	> 100	> 100	> 100	–	> 100	> 100	–	> 100
COC(=O)[C@@H](NC(=O)[C@H](N)Cc1ccc(N(CCCl)CCCl)cc1)C(C)C	13.4	97.1	> 77.3	> 100	> 29.6	57.7	34	> 51.8	> 38.6	59.2	40.4	49.7	51.8	26.3	45.1	7.53	> 100	49.5	35.5	–
Cc1nc2c(O)c3c(c(O)c2nc1C)C1C=CC3CC1	67.2	32.9	30.3	35.9	3.53	10.1	15.4	2.66	> 90.8	56.2	30.8	27.6	28.5	> 72.6	17.9	14.9	47.2	29.4	7	–
Cc1cccc(Nc2nc3ccccc3nc2NS(=O)(=O)c2ccccc2)c1	> 100	> 100	> 100	72	86.5	> 100	> 100	37.8	> 100	> 100	> 100	> 100	> 100	51.4	> 100	> 100	> 100	> 100	> 100	–
COc1cccc(/C=C2\SC(=S)N(/C=C3\C(=O)Oc4ccccc4C3=O)C2=O)c1O	> 100	> 100	> 100	> 100	> 100	> 100	80.3	> 100	> 100	> 100	> 100	> 100	> 100	> 100	> 100	> 100	> 100	> 100	> 100	–
CC(C)=CCC/C(C)=C/Cc1c(O)c(C)cc2c1[nH]c1cc(O)ccc12	> 25	> 25	> 25	–	> 25	–	> 25	> 25	> 25	> 25	> 25	> 25	> 25	> 25	> 25	–	–	> 25	–	> 25
CN1C(=O)[C@H](c2c[nH]c3ccccc23)[C@H](c2c[nH]c3ccccc23)C1=O	> 54.4	> 100	> 100	> 80.4	87	> 31.8	> 66.9	> 46.9	> 74.5	97.6	> 87.6	> 91.4	> 66.3	> 50.1	> 45.3	> 38.8	> 73.7	> 100	> 100	–
CC(C)OC(=O)C1(C(C)C)CCc2ccc(C(=O)CCC(=O)O)cc21 (stereo not given)	> 100	> 100	> 100	> 100	> 100	> 100	> 100	> 100	> 100	> 100	> 100	> 100	> 100	> 100	> 100	> 100	> 100	> 100	> 100	–
COc1ccc(C[C@@H](C(=O)O[C@H](C)[C@H](NC(=O)[C@@H](CC(C)C)N(C)C(=O)C2CCCN2C(=O)[C@H](C)O)C(=O)N2CCCCNC(=O)[C@@H](C)C(=O)[C@H](C(C)C)OC(=O)C[C@H](O)[C@H]2CC(C)C)N(C)C(C)=O)cc1 (stereo not given in full)	22	> 50	28.4	> 50	26.1	34.2	26.8	25.2	25	49.5	22.6	> 50	> 50	45.2	> 50	41.6	> 50	> 50	> 50	–
C=CC(=O)Nc1ccccc1CC(c1c[nH]c2ccccc12)c1c[nH]c2ccccc12	31.2	43.1	39.2	–	54.2	–	50.5	–	–	40.1	32.1	36.2	–	–	36.6	37.7	49.1	30.3	–	32.1
COc1ccc2c(C)cc(N/N=C/c3ccc(C)s3)nc2c1	> 54.6	> 100	> 48.4	37.1	> 93.7	29.1	> 35.7	> 56.2	31	51.7	> 100	31.6	> 52.4	20	37.9	34.4	26.8	23.2	26	–
CCOC(=O)c1csc(C(CSCc2ccc(OC)cc2)N2C(=O)c3ccccc3C2=O)n1 (stereo not given)	> 100	> 100	> 100	> 100	> 100	> 100	> 100	> 100	> 100	> 100	> 100	> 100	> 100	> 100	> 100	> 100	> 100	> 100	> 100	–
CCO[C@@]12CCC3CC4CC[C@@](OCC)(O1)C4C32 (stereo not given in full)	> 100	> 100	> 100	> 100	> 100	> 100	> 100	> 100	> 100	> 100	> 100	> 100	> 100	> 100	> 100	> 100	> 100	> 100	> 100	–
C1=Nc2ccc(cc2)-c2ccc(cc2)N=Cc2ccc(cc2)OCc2cccc(n2)COc2ccc1cc2	> 100	62.1	> 100	> 100	> 100	> 100	> 100	> 100	> 100	> 100	> 100	> 100	> 100	> 100	> 100	> 100	> 100	> 100	> 100	–
